Source: patent US10039282B2, “Six-membered C—N-bonded aryl sulphide and aryl sulphoxide derivatives as pesticides” (BAYER CROPSCIENCE AKTIENGESELLSCHAFT, priority 2013, dated 2018)
Read-outs that look alike come from different tables or passages of the source.

Key:
[1] = tested on: Tetranychus urticae; assay: Tetranychus urticae spray test, OP-resistant (bean leaf discs); assay type: in vivo; conditions: 500 g/ha, after 6 days
Experimental: 4. Tetranychus urticae—Spray Test, OP-Resistant
(§1) Solvent: 78.0 parts by weight of acetone
(§2) • 1.5 parts by weight of dimethylformamide Emulsifier: alkylaryl polyglycol ether
To produce further test concentrations, the preparation is diluted with emulsifier-containing water.
After 6 days, the efficacy in % is determined. 100% means that all the spider mites have been killed; 0% means that none of the spider mites have been killed.

[2] = tested on: Phaedon cochleariae; assay: whole plant or invertebrate; assay type: in vivo; conditions: 168 h
Experimental: 1. Phaedon cochleariae—Spray Test (PHAECO)
as §1, §2
(§3) To produce an appropriate active compound formulation, 1 part by weight of active compound is dissolved using the specified parts by weight of solvent and made up with water containing an emulsifier concentration of 1000 ppm until the desired concentration is attained. To produce further test concentrations, the preparation is diluted with emulsifier-containing water.
(§4) Discs of Chinese cabbage leaves (Brassica pekinensis) are sprayed with an active compound formulation of the desired concentration and, after drying, populated with larvae of the mustard beetle (Phaedon cochleariae).
After the desired period of time, the effect in % is determined. 100% means that all the beetle larvae have been killed; 0% means that no beetle larvae have been killed.

[3] = log P by reversed-phase HPLC analogously to OECD Guideline 117; assay type: physicochemical; conditions: reversed-phase C18 HPLC column
Experimental: The log P values were determined analogously to OECD Guideline 117 (EC Directive 92/69/EEC) by HPLC (high-performance liquid chromatography) using reversed-phase columns (C 18), by the following methods:
[a] The LC-MS determination in the acidic range is effected at pH 2.7 with 0.1% aqueous formic acid and acetonitrile (contains 0.1% formic acid) as eluents; linear gradient from 10% acetonitrile to 95% acetonitrile. log P^[…] is also referred to as log P(HCOOH). [b] LC-MS determination in the neutral range is effected at pH 7.8 with 0.001 molar aqueous ammonium hydrogencarbonate solution and acetonitrile as eluents; linear gradient from 10% acetonitrile to 95% acetonitrile. log P^[…] is also referred to as log P(neutral).
Calibration is effected with solutions of a homologous series of unbranched alkan-2-ones (having 3 to 16 carbon atoms) with known log P values (log P values determined on the basis of the retention times by linear interpolation between two successive alkanones).

[4] = tested on: Meloidogyne incognita; assay: Meloidogyne incognita test (soil drench, gall formation after 21 days); assay type: in vivo; conditions: 8 ppm
Experimental: 5. Meloidogyne incognita Test
Solvent: 7 parts by weight of dimethylformamide
Emulsifier: 2.5 parts by weight of alkylaryl poly glycol ether
To produce an appropriate active compound formulation, 1 part by weight of active compound is mixed with the stated amounts of solvent and emulsifier, and the concentrate is diluted with water to the desired concentration, it being necessary to include the volume of soil which is drenched in the calculation. It should be ensured that a concentration of 20 ppm of emulsifier in the soil is not exceeded. To produce further test concentrations, water is used for dilution.
Pots filled with soil (loamy sand) are watered with the active compound solution. An egg/larvae suspension of the southern root-knot nematode (Meloidogyne incognita) is added, lettuce seeds are scattered over the surface of the soil, and they are covered over with quartz sand. The lettuce seeds germinate and the plants develop. The galls develop on the roots.
After 21 days, the nematicidal efficacy in % is determined by the formation of galls. 100% means that no galls have been found; 0% means that the number of galls on the treated plants corresponds to the untreated control.

[5] = tested on: Phaedon cochleariae; assay: Phaedon cochleariae spray test; assay type: in vivo; conditions: 500 g/ha, after 7 days
Experimental: 3. Phaedon cochleariae—Spray Test
Solvent: 78.0 parts by weight of acetone • • 1.5 parts by weight of dimethylformamide Emulsifier: alkylaryl polyglycol ether
as §3, §4
After 7 days, the efficacy in % is determined 100% means that all the beetle larvae have been killed; 0% means that no beetle larvae have been killed.

[6] = tested on: Boophilus microplus; assay: Boophilus microplus injection test; assay type: in vivo; conditions: 20 μg/animal, assessed after 7 days
Experimental: 1. Boophilus microplus—Injection Test
Solvent: dimethyl sulphoxide
To produce an appropriate active compound formulation, 10 mg of active compound are mixed with 0.5 ml of solvent and the concentrate is diluted with solvent to the desired concentration.
1 μl of the active compound solution is injected into the abdomen of 5 engorged adult female cattle ticks (Boophilus microplus). The animals are transferred into dishes and kept in a climate-controlled room.
The efficacy is assessed after 7 days by laying of fertile eggs. Eggs which are not visibly fertile are stored in a climate-controlled cabinet until the larvae hatch after about 42 days. An efficacy of 100% means that none of the ticks has laid any fertile eggs; 0% means that all the eggs are fertile.

## Cc1cc(F)c(-n2cnc(C(F)(F)F)cc2=O)cc1[S+]([O-])CC(F)(F)F (stereo not shown) [Example 2, 3-{2-Fluoro-4-methyl-5-[(2,2,2-trifluoroethyl)sulphinyl]phenyl}-6-(trifluoromethyl)pyrimidin-4(3H)-one]
[1]
  efficacy (spider mites killed): 100%
[2]
  mortality at 500 g/ha: 100%
[3]; acidic range, pH 2.7, 0.1% aqueous formic acid/acetonitrile, read-out: logP (HCOOH)
  chromatographic logP: 2.4
[3]; neutral range, pH 7.8, 0.001 molar aqueous ammonium hydrogencarbonate/acetonitrile, read-out: logP (neutral)
  chromatographic logP: 2.38
[4]
  nematicidal efficacy (formation of galls): 85%
[5]
  efficacy (beetle larvae killed): 100%
[6]
  efficacy (no fertile eggs laid): 100%
